Test results: patent publication EP3354264A1, “PROPHYLAXIS AND TREATMENT OF NEISSERIA GONORRHOEAE EYE INFECTION” (Kingston University Higher Education Corporation, priority 2017, dated 2018)
Converted amounts (≈) assume the structure as drawn. “And” between values parts separate entries of the source, which are not always exact repeats. Equal values may be shown once. Read-outs that look alike come from different tables or passages of the source.

Columns and labels:
Bovine eyes = details: test compounds 1 mM in saline, controls as labelled, exposure 30 seconds
Protocol: Bovine eyes were collected from a local slaughter house (ABP, Guildford, Surrey, UK) and were transported in cold saline for testing at the laboratory. Each eye was first examined for signs of damage before use. The test was conducted according to Abdelkader et al., (2012), Int J Pharm 432: 1-10. The exposure time of the test substances was 30 seconds. The selected bactericidal compounds were tested at a concentration of 1 mM in saline. Overall, the concentration of ethanol carry-over from the stock of the organic acids was therefore 1 %. […] The test area of the cornea was then washed with 10 ml saline.
Corneal damage to the test area was assessed by fluorescein staining and examined under a cobalt blue filter. […] Each of the seven candidates were tested in triplicate, each test was performed on a separate day from a different batch of eye balls. Corneal histology was done as Abdelkader et al., (2012), Int J Pharm 432: 1-10 by evaluating the damage to the epithelial layer and stroma of the cornea after Haematoxylin and Eosin staining.

Chorioallantoic Membrane = details: organic acids 1 mg/ml, sodium hydroxide 0.1M; for Total Score: number
Protocol: The HET-CAM was performed according to Alany et al., (2006), J Control Release 111: 145-152. Fertilised white leghorn eggs were purchased from Henry Stewart & Co. Ltd (Fakenham, Norfolk, UK) and delivered to Kingston University. All eggs were checked for damage and incubated at 37°C with 60-70 % relative humidity. At day 4 the eggs were removed from their shells and placed in incubation chambers. At day 9, the CAMs were tested. This was done by applying 200 µl of the testing material and recording results at 30, 120, and 300 seconds. At each of these time-points the effect of the substance on the CAM was evaluated by assessing them against the scoring system (Vanerp YHM, et al., (1990), Toxicology in Vitro 4: 267-269).

[1] = system: panel of nine N. gonorrhoeae isolates (strain NCCP11945 and eight isolates from Public Health England); experiment: Minimum bactericidal concentration by log reduction, panel of isolates; type: cell-based; details: Neisseria gonorrhoeae, 2 min, read-out: Minimum bactericidal concentration
Protocol: (§1) The well characterised N. gonorrhoeae strain NCCP11945 (Chung GT et al. (2008) Complete genome sequence of Neisseria gonorrhoeae NCCP11945. Journal of Bacteriology 190: 6035-6036) was used in the screening stage of this experiment. Eight isolates that were obtained from Public Health England from various European locations were used in the log reduction assays. All isolates were first cultured for 24 hours prior to testing by plating on GC solid medium (Oxoid Limited, Hampshire, UK) with Kellogg supplements and incubating at 37 °C, 5% CO2 (Kellogg DS, Jr., et al., (1963), J Bacteriol 85: 1274-1279).
(§2) Log reductions were done using the same method as in Bergsson et al., (1999), Antimicrob Agents Chemother 43: 2790-2792. Briefly, cells were suspended in GC broth (18 g/L GC Base (Oxiod, Limited) with added defined supplements) to an optical density of 0.3 at 520 nm which is approximately equivalent to 107 - 108 cells per millilitre (Macfarlane DE et al. (1980) Improved media for the culture of Neisseria gonorrhoeae. J Med Microbiol 13: 597-607). Five hundred microliters of the suspension was then added to 5 µl of the 100 mM stocks to give a final concentration of 1 mM. A negative control was also done to calculate the reduction in bacterial titre by adding 500 µl to 5 µl ethanol. The tubes were then mixed at room temperature for two minutes and immediately diluted in a 10 fold dilution series down to 10-4. The dilutions were plated by spreading 10 µl on a quarter of a plate and 100 µl of the neat solution was also plated. Plates were incubated at 37 °C for 48 hours. All samples were plated in duplicate. A reduction in viable cell count by more than 4 log10 was deemed to be bactericidal and was selected for further investigation. Bactericidal compounds were then tested at concentrations of 0.75, 0.5, and 0.25 mM (0.125 mM was also used in some potent compounds) to find the minimum bactericidal concentration. Additional testing at lower concentrations was also done on the eight clinical isolates of European origin.
As shown by the results in Table 3 which presents data on the log reductions of bacterial cell counts, against a panel of nine N. gonorrhoeae isolates (strain NCCP11945 and eight isolates from Public Health England), myristoleic acid (C14:1cΔ9), palmitoleic acid (C16:1cΔ9), linolenic acid (C18:3cΔ9,12,15), and monocaprin (C10) have a minimal bactericidal concentration, defined as the lowest concentration tested to give an average 4 log10 reduction in bacterial count after a two minute exposure, of 0.5 mM. Against a panel of nine N. gonorrhoeae isolates, lauric acid (C12:0), tridecanoic acid (C13:0), and sodium dodecanoate have a minimal bactericidal concentration of 0.75 mM.

[2] = system: Neisseria gonorrhoeae strain NCCP11945; experiment: Measurement of bactericidal action (log reduction); type: cell-based; details: for log reduction at 1000 µM: Neisseria gonorrhoeae
Protocol: as §1
(§3) A full list of all the organic acids tested in this study is in Table 1. The tested compounds include saturated and unsaturated fatty acids, monoglycerides, dicarboxylic acids, and fatty acid sodium salts. All compounds investigated were resuspended at a concentration of 100 mM in ethanol unless stated. All chemicals were obtained from Sigma-Aldrich (Poole, Dorset, UK).
as §2

[3] = system: Neisseria gonorrhoeae strain NCCP11945; experiment: Growth inhibition screen of organic acids; type: cell-based; details: strain NCCP11945, in vitro, 1 mM
Protocol: as §1, §3
Other organic acids were also active at this concentration, as noted in Table 1.

[4] = system: Neisseria gonorrhoeae strain NCCP11945; experiment: Log reduction in artificial tear fluid; type: cell-based; details: two minute exposure
Protocol: Artificial tear fluid was made as in Mirejovsky et al., Optometry and Vision Science, (1991), 68: 858-864. […] Neisseria gonorrhoeae strain NCCP11945 was used in these experiments. As the previous log reductions, […] were suspended in GC broth. The cell suspension was centrifuged to remove the culture medium and the bacteria resuspended in the tear fluid. This was then added to the concentrated organic acid candidates. The cells were then counted again after two minute exposure to estimate any reduction due to the exposure to the fatty acid.
In a first experiment, the artificial tear fluid formulation includes calcium chloride to mimic the calcium in natural tears. As shown by the results in Figure 8, the anti-gonococcal properties of myristoleic acid (C14:1cΔ9), palmitoleic acid (C16:1cΔ9), linolenic acid (C18:3cΔ9,12,15), and monocaprin(C10) are retained in the artificial tear fluid formulation containing calcium chloride.
In a second experiment, calcium chloride was omitted from the artificial tear fluid formulation. The results in Figure 9 indicate that the anti-gonococcal properties of lauric acid (C12:0), tridecanoic acid (C13:0), and sodium dodecanoate were retained in the artificial tear fluid formulation without.

RBCs = experiment: in vitro; type: cell-based, bovine
Protocol: (§4) Whole bovine blood was obtained from a local slaughter house (ABP, Guildford, Surrey, UK), adding 90 ml blood to 10 ml of 110 mM tri-sodium citrate anticoagulant. RBCs were isolated the same day. The RBCs were washed by three repeats of centrifugation (1,500 x g for 10 minutes) and resuspension in PBSG. Testing was done following European Union Reference Laboratory for alternatives to animal testing (EURL-ECVAM) guidelines (Lewis RW (2010) DB-ALM Protocol No. 99: Red blood cell (RBC) Test System. EURL ECVAM). The organic acids were made up in DMSO and diluted to a DMSO concentration maximum of 10 % (v/v). Samples were shaken at room temperature for 1 hour and then centrifuged at 10,000 rpm for 2 minutes. An aliquot of 750 µl of the supernatant was taken and absorbance at […] tested.

in vitro = type: cell-based, bovine; details: red blood cells
Protocol: as §4

Neisseria meningitidis = details: at the concentration used for the antigonococcal ocular formulation; cited from earlier work
[5] = system: N. gonorrhoeae strain NCCP11945; experiment: Cell culture infection model (primary cornea epithelial cells); type: cell-based; details: 1 mM, added 90 minutes after infection; Figure 10
Protocol: Primary cornea epithelial cells were obtained from Life Technologies (Paisley, Glasgow, UK) and grown in Keratinocyte serum free medium (Life Technologies), at 37 °C with 5 % CO2 until 80 % confluent. The cells were then trypsin treated, washed, added to 24 welled plates and incubated for a further 24 hours. The medium was replaced and a fresh P+, Opa+ cells N. gonorrhoeae strain NCCP11945 suspension (approximately 10^7 CFU/ml) was added to the cells to get a multiplicity of infection of 10. All samples were done in duplicate. Monocaprin (1 mM, 0.5 mM, 0.25 mM, and 0.125 mM) was either added directly after the bacteria or after 90 minutes. […] The total time of the infection was three hours. The cells were washed five times with 1 ml PBS for each well. The wells were treated with warmed 1 % saponin in PBS and incubated for 10 minutes at 37 °C. After this, 900 µl GC broth was added and log reductions calculated as above. The CFUs of the drug exposed wells were compared to the CFU counts of the Infection controls to estimate the log reduction caused by the action of the monocaprin. Comparisons of the log reductions at different drug administration times at given concentrations was analysed in an unpaired t test using GraphPad Prism (version 6.01).

Staphylococcus aureus = details: at the concentration used for the antigonococcal ocular formulation; cited from earlier work
Streptococcus pneumoniae = details: at the concentration used for the antigonococcal ocular formulation; cited from earlier work
Pseudomonas aeruginosa = details: at the concentration used for the antigonococcal ocular formulation; cited from earlier work
[6] = NCCP11945, 2 min, read-out: Log reduction of Neisseria gonorrhoeae, strain NCCP11945, 1 mM, 2 minutes
[7] = strain NCCP11945, 1 mM, 2 minutes
[8] = artificial tear fluid without calcium chloride, Figure 9
[9] = at their minimum bactericidal concentration
[10] = bovine RBCs, shaken 1 hour at room temperature, read-out: H50
[11] = bovine RBCs, shaken 1 hour at room temperature, read-out: H50 (mg/L)
[12] = lowest concentration tested giving an average 4 log10 reduction after two minute exposure, nine isolates
[13] = 2 min, strain NCCP11945, 1 mM, 2 minutes, read-out: Log reduction of Neisseria gonorrhoeae

Row | HC50 at 1 h (in vitro; [10]) | HC50 at 1 h (in vitro; [11]) | SMILES | Total Score (Chorioallantoic Membrane) | MBC [1] | log reduction at 1000 µM [2, 6] | Log reduction of Neisseria gonorrhoeae [2, 7] | Inhibits growth of Neisseria gonorrhoeae [3] | anti-gonococcal properties in artificial tear fluid [4, 8] | RBC lysis assay prediction of irritation (RBCs; [9]) | MBC [1, 12] | log reduction at 1000 µM [2, 13] | RBC lysis assay prediction of irritation (RBCs) | further results
1 |  |  | CC(C)=O [Acetone, reference compound] | 14 |  |  |  |  |  |  |  |  |  | BCOP classification (Bovine eyes): Strong irritant; Total Score (irritation grade in words) (Chorioallantoic Membrane): Severe
2 | 1.6 to 2.4 mM | 400 to 600 mg/L | CCCCCCCCCC(=O)OCC(O)CO (centres unmarked) [Monocaprin C10, Monocaprin] |  |  |  | able to cause a log reduction | Yes |  | not irritating | 500 µM (≈ 123 µg/mL) | > 6 |  | bactericidal to Neisseria meningitidis (Neisseria meningitidis): bactericidal; kill of Neisseria gonorrhoeae that has infected human epithelial cells [5]: able to kill; bactericidal to Staphylococcus aureus (Staphylococcus aureus): bactericidal; Inhibits growth of Neisseria gonorrhoeae ([3]; listed as monocaprin): able to inhibit growth; anti-gonococcal properties in artificial tear fluid ([4]; artificial tear fluid containing calcium chloride, Figure 8): retained; bactericidal to Streptococcus pneumoniae (Streptococcus pneumoniae): bactericidal; bactericidal to Pseudomonas aeruginosa (Pseudomonas aeruginosa): bactericidal
3 |  |  | CCCCCCCCCCCC(=O)[O-].[Na+] [Sodium dodecanoate] |  | 750 µM | > 6 | able to cause a log reduction | Yes | retained |  |  |  | not irritating | Inhibits growth of Neisseria gonorrhoeae ([3]; listed as sodium dodecanoate): able to inhibit growth; HC50 at 1 h (in vitro; bovine): 200 µg/mL to 400 µg/mL and 900 µM to 1.8 mM
4 | > 4.67 mM | > 1000 mg/L | CCCCCCCCCCCCC(=O)O [Tridecanoic acid 13:0, Tridecanoic acid] |  |  |  | able to cause a log reduction | Yes | retained |  | 750 µM (≈ 161 µg/mL) | > 6 | not irritating | Inhibits growth of Neisseria gonorrhoeae ([3]; listed as tridecanoic acid): able to inhibit growth

Row | SMILES | HC50 at 1 h (in vitro; [10]) | HC50 at 1 h (in vitro; [11]) | Total Score (Chorioallantoic Membrane) | MBC [1] | log reduction at 1000 µM [2, 6] | Log reduction of Neisseria gonorrhoeae [2, 7] | Inhibits growth of Neisseria gonorrhoeae [3] | anti-gonococcal properties in artificial tear fluid [4, 8] | RBC lysis assay prediction of irritation (RBCs; [9]) | MBC [1, 12] | log reduction at 1000 µM [2, 13] | RBC lysis assay prediction of irritation (RBCs) | further results
5 | CCCCCCCCCCCC(=O)O [Lauric acid 12:0, dodecanoic acid] | 1 to 2 mM | 200 to 400 mg/L | 0 | 750 µM (≈ 150 µg/mL) | > 6 | able to cause a log reduction | Yes | retained | not irritating |  |  |  | BCOP classification (Bovine eyes; listed as Lauric acid): Non-irritant; BCOP classification (Bovine eyes; listed as lauric acid): will not cause irritation; Inhibits growth of Neisseria gonorrhoeae ([3]; listed as lauric acid): able to inhibit growth; Total Score (irritation grade in words) (Chorioallantoic Membrane; listed as Lauric acid): None
